Data as given in patent publication US11098040B2, “Compounds and methods of use” (Ferro Therapeutics, Inc., priority 2018, dated 2021).

Tests used:
[1] = system: KP4; test: Cell viability assay (CellTiter Glo), pancreatic ductal adenocarcinoma KP4; type: cell-based, human; conditions: Homo sapiens, KP-4, 96 h, pancreatic cancer cell line KP4, 96 hours, CellTiter Glo; read-out: IC50 μM KP4
How it was run: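 KP4 cells seeded at 1,000–10,000 per well, treated 96 h with 9-point 3-fold dilutions from 30 μM top (4.6 nM–30 μM, duplicates; ≤0.25% DMSO). Viability by CellTiter Glo luminescence; % inhibition relative to DMSO-only wells, giving IC50, relative IC50 or % top inhibition.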

[2] = Whole blood stability, mouse; type: in vitro ADME
Text: (§1) The results of the assay on stability in blood and IC50 values for pancreatic cancer cell line KP4 are given below in Table 24.

[3] = Whole blood stability, human; type: in vitro ADME
Text: as §1

COC(=O)[C@H]1Cc2c([nH]c3ccccc23)[C@H](c2ccc(C(=O)OCC3CCC3)cc2)N1C(=O)CCl [Compound 85]
IC50 [1]: < 0.01 µM
Whole Blood Stability % Remaining at 37° C. Mouse ([2]; 0 min): 100.0%
Whole Blood Stability % Remaining at 37° C. Mouse ([2]; 30 min): 0.0%
Whole Blood Stability % Remaining at 37° C. Mouse ([2]; 60 min): 0.0%
Whole Blood Stability % Remaining at 37° C. Human ([3]; 0 min): 100.0%
Whole Blood Stability % Remaining at 37° C. Human ([3]; 30 min): 73.5%
Whole Blood Stability % Remaining at 37° C. Human ([3]; 60 min): 54.4%

CNC(=O)c1ccc([C@H]2c3[nH]c4ccccc4c3C[C@H](C(=O)OC)N2C(=O)CCl)cc1 [Compound 7]
IC50 [1]: 0.01 to 0.1 µM
Whole Blood Stability % Remaining at 37° C. Mouse ([2]; 0 min): 100.0%
Whole Blood Stability % Remaining at 37° C. Mouse ([2]; 30 min): 68.2%
Whole Blood Stability % Remaining at 37° C. Mouse ([2]; 60 min): 48.6%
Whole Blood Stability % Remaining at 37° C. Human ([3]; 0 min): 100.0%
Whole Blood Stability % Remaining at 37° C. Human ([3]; 30 min): 60.1%
Whole Blood Stability % Remaining at 37° C. Human ([3]; 60 min): 44.5%

COC(=O)[C@H]1Cc2c([nH]c3ccccc23)[C@@H](c2ccc(C(=O)N3CCC(O)CC3)cc2)N1C(=O)CCl [Compound 32a]
IC50 [1]: > 1 µM
Whole Blood Stability % Remaining at 37° C. Mouse ([2]; 0 min): 100.0%
Whole Blood Stability % Remaining at 37° C. Mouse ([2]; 30 min): 0.0%
Whole Blood Stability % Remaining at 37° C. Mouse ([2]; 60 min): 0.0%
Whole Blood Stability % Remaining at 37° C. Human ([3]; 0 min): 100.0%
Whole Blood Stability % Remaining at 37° C. Human ([3]; 30 min): 1.9%
Whole Blood Stability % Remaining at 37° C. Human ([3]; 60 min): 0.9%

C[C@H]1Cc2c([nH]c3ccccc23)[C@H](c2ccc(C3CCCCC3)cc2)N1C(=O)CCl [Compound 110]
IC50 [1]: < 0.01 µM
Whole Blood Stability % Remaining at 37° C. Mouse ([2]; 0 min): 100.0%
Whole Blood Stability % Remaining at 37° C. Mouse ([2]; 30 min): 127.4%
Whole Blood Stability % Remaining at 37° C. Mouse ([2]; 60 min): 111.0%
Whole Blood Stability % Remaining at 37° C. Human ([3]; 0 min): 100.0%
Whole Blood Stability % Remaining at 37° C. Human ([3]; 30 min): 68.3%
Whole Blood Stability % Remaining at 37° C. Human ([3]; 60 min): 51.7%

CN(C)C(=O)[C@H]1Cc2c([nH]c3ccccc23)[C@H](C2CCN(C(=O)OC(C)(C)C)CC2)N1C(=O)CCl [Compound 42]
IC50 [1]: > 1 µM
Whole Blood Stability % Remaining at 37° C. Mouse ([2]; 0 min): 100.0%
Whole Blood Stability % Remaining at 37° C. Mouse ([2]; 30 min): 72.9%
Whole Blood Stability % Remaining at 37° C. Mouse ([2]; 60 min): 62.0%
Whole Blood Stability % Remaining at 37° C. Human ([3]; 0 min): 100.0%
Whole Blood Stability % Remaining at 37° C. Human ([3]; 30 min): 46.2%
Whole Blood Stability % Remaining at 37° C. Human ([3]; 60 min): 28.5%

CN(C)C(=O)[C@H]1Cc2c([nH]c3ccccc23)[C@H](c2ccc(S(=O)(=O)C3CCCC3)cc2)N1C(=O)CCl [Compound 69]
IC50 [1]: 0.01 to 0.1 µM
Whole Blood Stability % Remaining at 37° C. Mouse ([2]; 0 min): 100.0%
Whole Blood Stability % Remaining at 37° C. Mouse ([2]; 30 min): 63.8%
Whole Blood Stability % Remaining at 37° C. Mouse ([2]; 60 min): 29.3%
Whole Blood Stability % Remaining at 37° C. Human ([3]; 0 min): 100.0%
Whole Blood Stability % Remaining at 37° C. Human ([3]; 30 min): 48.4%
Whole Blood Stability % Remaining at 37° C. Human ([3]; 60 min): 18.3%

C[C@H]1Cc2c([nH]c3ccccc23)[C@H](c2ccc(N3CCOCC3)cc2)N1C(=O)CCl [Compound 103, 2-chloro-1-((1S,3S)-3-methyl-1-(4-morpholinophenyl)-1,3,4,9-tetrahydro-2H-pyrido[3,4-b]indol-2-yl)ethan-1-one]
IC50 [1]: < 0.01 µM
Whole Blood Stability % Remaining at 37° C. Mouse ([2]; 0 min): 100.0%
Whole Blood Stability % Remaining at 37° C. Mouse ([2]; 30 min): 87.1%
Whole Blood Stability % Remaining at 37° C. Mouse ([2]; 60 min): 56.6%
Whole Blood Stability % Remaining at 37° C. Human ([3]; 0 min): 100.0%
Whole Blood Stability % Remaining at 37° C. Human ([3]; 30 min): 98.4%
Whole Blood Stability % Remaining at 37° C. Human ([3]; 60 min): 75.2%

COC(=O)[C@H]1Cc2c([nH]c3ccccc23)[C@H](c2ccc(C(=O)N(C)C)cc2)N1C(=O)CCl [Compound 8]
IC50 [1]: < 0.01 µM
Whole Blood Stability % Remaining at 37° C. Mouse ([2]; 0 min): 100.0%
Whole Blood Stability % Remaining at 37° C. Mouse ([2]; 30 min): 53.0%
Whole Blood Stability % Remaining at 37° C. Mouse ([2]; 60 min): 30.5%
Whole Blood Stability % Remaining at 37° C. Human ([3]; 0 min): 100.0%
Whole Blood Stability % Remaining at 37° C. Human ([3]; 30 min): 52.0%
Whole Blood Stability % Remaining at 37° C. Human ([3]; 60 min): 26.5%

COC(=O)c1ccc([C@H]2c3[nH]c4cccc(Br)c4c3C[C@H](C(=O)OC)N2C(=O)CCl)cc1 [Compound 95]
IC50 [1]: 0.01 to 0.1 µM
Whole Blood Stability % Remaining at 37° C. Mouse ([2]; 0 min): 100.0%
Whole Blood Stability % Remaining at 37° C. Mouse ([2]; 30 min): 1.5%
Whole Blood Stability % Remaining at 37° C. Mouse ([2]; 60 min): 0.0%
Whole Blood Stability % Remaining at 37° C. Human ([3]; 0 min): 100.0%
Whole Blood Stability % Remaining at 37° C. Human ([3]; 30 min): 109.5%
Whole Blood Stability % Remaining at 37° C. Human ([3]; 60 min): 85.6%

C[C@H]1Cc2c([nH]c3ccccc23)[C@H](c2ccc(C(=O)N[C@]34CC5C[C@H](C[C@H](C5)C3)C4)cc2)N1C(=O)CCl [Compound 102]
IC50 [1]: < 0.01 µM
Whole Blood Stability % Remaining at 37° C. Mouse ([2]; 0 min): 100.0%
Whole Blood Stability % Remaining at 37° C. Mouse ([2]; 30 min): 87.2%
Whole Blood Stability % Remaining at 37° C. Mouse ([2]; 60 min): 90.1%
Whole Blood Stability % Remaining at 37° C. Human ([3]; 0 min): 100.0%
Whole Blood Stability % Remaining at 37° C. Human ([3]; 30 min): 96.3%
Whole Blood Stability % Remaining at 37° C. Human ([3]; 60 min): 75.6%

COC(=O)c1ccc([C@@H]2c3[nH]c4ccc(F)cc4c3C[C@H](C(=O)OC)N2C(=O)CCl)cc1 [Compound 92]
IC50 [1]: 0.1 to 0.5 µM
Whole Blood Stability % Remaining at 37° C. Mouse ([2]; 0 min): 100.0%
Whole Blood Stability % Remaining at 37° C. Mouse ([2]; 30 min): 0.0%
Whole Blood Stability % Remaining at 37° C. Mouse ([2]; 60 min): 0.0%
Whole Blood Stability % Remaining at 37° C. Human ([3]; 0 min): 100.0%
Whole Blood Stability % Remaining at 37° C. Human ([3]; 30 min): 40.2%
Whole Blood Stability % Remaining at 37° C. Human ([3]; 60 min): 21.0%

COC(=O)C1CCC([C@H]2c3[nH]c4ccccc4c3C[C@H](C(=O)N(C)C)N2C(=O)CCl)CC1 (stereo partly shown) [Compound 41]
IC50 [1]: 0.01 to 0.1 µM
Whole Blood Stability % Remaining at 37° C. Mouse ([2]; 0 min): 100.0%
Whole Blood Stability % Remaining at 37° C. Mouse ([2]; 30 min): 0.0%
Whole Blood Stability % Remaining at 37° C. Mouse ([2]; 60 min): 0.0%
Whole Blood Stability % Remaining at 37° C. Human ([3]; 0 min): 100.0%
Whole Blood Stability % Remaining at 37° C. Human ([3]; 30 min): 82.4%
Whole Blood Stability % Remaining at 37° C. Human ([3]; 60 min): 100.0%

COC(=O)c1ccc([C@H]2c3[nH]c4ccccc4c3C[C@H](C(=O)OC)N2C(=O)CCl)cc1 [K601 (RSL3), reference compound]
IC50 [1]: < 0.01 µM
Whole Blood Stability % Remaining at 37° C. Mouse ([2]; 0 min): 100.0%
Whole Blood Stability % Remaining at 37° C. Mouse ([2]; 30 min): 0.2%
Whole Blood Stability % Remaining at 37° C. Mouse ([2]; 60 min): 0.2%
Whole Blood Stability % Remaining at 37° C. Human ([3]; 0 min): 100.0%
Whole Blood Stability % Remaining at 37° C. Human ([3]; 30 min): 60.8%
Whole Blood Stability % Remaining at 37° C. Human ([3]; 60 min): 42.5%
